Experiments:
[1] = tested on: PSA promoter (androgen-responsive promoter) in 22RvPSA36-103 cells; assay: PSA-luciferase reporter assay, induction by steroid hormones; format: cell-based, human; settings: 20 hours; for PSA-luciferase activity stimulation: 10 nM, dose dependent, maximum
Description: The 22Rvl cell line was purchased from ATCC. Reporter plasmid (p5.7 kb-PSA-Luc) was constructed by inserting the 5.7 kb PSA promoter into pGL3 plasmid (Promega).
(§1) For luciferase activity assays, 8×10^4 22Rvl-derived cells were grown in 48-well multi-well plates. The cell culture medium was RPMI containing 5% charcoal coated dextran stripped fetal bovine serum (Hyclone). After the cells were grown for one day in culture, their growth medium was exchanged to include experimental or control compositions, as described below, and cell growth was continued for a further 20 hours. Cells were lysed by the addition of passive lysis buffer (Promega), then luciferase assays were performed using a luciferase assay system (Promega) and VICTOR^2 multilabel counter (PerkinElmer), and normalized to lysate protein as measured by a Coomassie (Bradford) Protein Assay Kit (Pierce).
The AR signaling pathway promotes the development of prostate cancer. Thus, we established a cell-based model to observe androgen-responsive promoter activity in human prostate cancer cells. […] 22RvPSA36-103 cells were incubated for 20 hours in the presence of an androgen.

[2] = tested on: androgen-responsive promoter activity in 22RvPSA36-103 cells; assay: Luciferase assay, inhibition of androgen-induced androgen-responsive promoter activity; format: cell-based, human; settings: 20 hours
Description: as §1
The ability of the IKK inhibitors 15-deoxy-Δ^12,14-prostaglandin J2, prostaglandin A1, and wedelolactone to inhibit androgen-responsive promoter activity was tested using the above-described luciferase assay.
A tet operon-regulated H1-small hairpin RNA expression cassette was constructed and inserted into the pcDNA6tTR™ plasmid from Invitrogen (Carlsbad, Calif.). Each knockdown plasmid was transfected into 22RvPSA36-103 cells to produce stably transfected cell lines. The knockdown of IKKα or IKKβ in daughter cell lines was determined by immunoblotting. […] To induce RNAi-mediated knockdown, cells were grown in medium containing 1 μg/ml doxycycline as compared to vehicle control for 3 days. Subsequent treatment and assays were performed according to the procedure of the aforementioned luciferase assays.

22RvPSA36-103 cells = assay: Colony forming efficiency, crystal violet OD595, 22RvPSA36-103 cells; format: cell-based, human; settings: 6 days, plus androgen
Description: Given that activation of the AR signaling pathway stimulates prostate cancer cell proliferation and our finding that IKKα is implicated in this pathway, we sought to determine if IKKα inhibition would reduce prostate cancer cell proliferation. To this end, the colony forming efficiency of 22Rv1 cells and 22RvPSA36-103 cells in the presence of an androgen plus or minus an IKK inhibitor was determined by growing 2×10^4 cells in 12-well multi-well plates for 6 days. The growth medium was replaced every three days. At the end of the growth period, cell colonies were stained with 0.1% crystal violet in phosphate buffer saline, dried, and photographed. Cellular retention of crystal violet was extracted with 20% acetic acid in water and measured at OD595 as a quantitative indicator of colony forming efficiency.

22Rv1 cells = assay: Colony forming efficiency, crystal violet OD595, 22Rv1 cells; format: cell-based, human; settings: 6 days, plus androgen
[3] = tested on: AR in a complex with IKKα; settings: 10 nM, five minutes, 22Rv/PSA36-103 cells
Excerpt: We investigated if IKKα or IKKβ could interact with activated AR in 22Rv/PSA36-103 cells after androgen stimulation.

In the case of `C[C@]12CC[C@H]3[C@@H](CCC4=CC(=O)CC[C@@]43C)[C@@H]1CC[C@@H]2O` [testosterone], the PSA-luciferase activity stimulation [1] is reported as “approximately 100 fold over baseline”.
With `CCCCC/C=C/C=C1/C(=O)C=C[C@@H]1C/C=C\CCCC(=O)O` [15-deoxy-Δ^12,14-prostaglandin J2] the “Inhibition of 5α-dihydrotestosterone-induced luciferase expression” value [2] was “inhibited 5α-dihydrotestosterone-induced luciferase expression in a dose-dependent manner”.
`COc1cc(O)c2c(c1)oc(=O)c1c3cc(O)c(O)cc3oc21` [wedelolactone] was tested, and the “Inhibition of androgen-stimulated colony growth” value (22RvPSA36-103 cells) was “highly effective”, the “Inhibition of androgen-stimulated colony growth” value (22Rv1 cells) was “highly effective” and the “Inhibition of 5α-dihydrotestosterone-induced luciferase expression” value [2] was “inhibited 5α-dihydrotestosterone-induced luciferase expression in a dose-dependent manner”.
`CCCCC[C@H](O)/C=C/[C@H]1C=CC(=O)[C@@H]1CCCCCCC(=O)O` [prostaglandin A1] was tested, and the “Inhibition of 5α-dihydrotestosterone-induced luciferase expression” value [2] was “inhibited 5α-dihydrotestosterone-induced luciferase expression in a dose-dependent manner”.
In the case of `C[C@]12CCC(=O)C[C@@H]1CC[C@@H]1[C@@H]2CC[C@]2(C)[C@@H](O)CC[C@@H]12` [5α-dihydrotestosterone], the “Co-immunoprecipitation of the AR in a complex with IKKα” value [3] is reported as “detected” and the PSA-luciferase activity stimulation [1] is reported as “approximately 100 fold over baseline”.
For `C[C@]12CC[C@@H]3c4ccc(O)cc4CC[C@H]3[C@@H]1CC[C@@H]2O` [17-β-estradiol], the “Induction of PSA-luciferase expression” value [1] was “failed to induce PSA-luciferase expression”.
In the case of `CC(=O)[C@H]1CC[C@H]2[C@@H]3CCC4=CC(=O)CC[C@]4(C)[C@H]3CC[C@]12C` [progesterone], the “Induction of PSA-luciferase expression” value [1] is reported as “failed to induce PSA-luciferase expression”.

Source: patent US9144591B2, “Transcription modulator compositions” (Academia Sinica, priority 2006, dated 2015)
